Converted amounts (≈) assume the structure as drawn. Blank lines part the entries; values can stand above or below the compound they belong to.
Assays:
[1] = Paclitaxel aqueous solubility in the presence of hydrotropic agents, polymers and hydrogels (HPLC)
Experimental: The mobile phase consists of acetonitrile-water (45:55 v/v) with a flow rate of 1.0 ml/min.
To the filtered solution is added ethylene glycol dimethacrylate, a crosslinker at a concentration of 6 mol % to the monomer.

physchem [2] = settings: water
[3] = Water solubility (maximum solubility) of hydrotropic agents; settings: for solubility: water
A-498 = assay: Antitumor cytotoxicity GI50, MTT bioassay; format: cell-based; settings: Homo sapiens, A498, A-498 (kidney)
From the text: (§1) Purdue Cancer Center Cell Culture Laboratory has provided bioassay service for measuring antitumor cytotoxicity for many years. […] The standard bioassay is done in 96-well microtiter plates using MTT [3-(4,5-dimethylthiazole-2-yl)-2,5-diphenytetrazolium bromide]. MTT is cleaved in the mitochondria of live cells to produce a dark blue formazan product. […] Adriamycin is used as an internal reference antitumor agent for the quality control of the standardized cytotoxicity assay.
(§2) The results of cytotoxicity evaluations are compared with those of animal experiments to examine what formulations were optimal for each experiment.

A-549 = assay: Antitumor cytotoxicity GI50, MTT bioassay; format: cell-based; settings: Homo sapiens, A549, A-549 (lung)
From the text: as §1, §2

HT-29 = assay: Antitumor cytotoxicity GI50, MTT bioassay; format: cell-based; settings: Homo sapiens, HT-29 (colon)
From the text: as §1, §2

MCF-7 = assay: Antitumor cytotoxicity GI50, MTT bioassay; format: cell-based; settings: Homo sapiens, MCF7, MCF-7 (breast)
From the text: as §1, §2

PC-3 = assay: Antitumor cytotoxicity GI50, MTT bioassay; format: cell-based; settings: Homo sapiens, PC-3 (prostate)
From the text: as §1, §2

PaCa-2 = assay: Antitumor cytotoxicity GI50, MTT bioassay; format: cell-based; settings: Homo sapiens, PaCa-2 (pancreas)
From the text: as §1, §2

physchem [4] = assay: physchem
From the text: (§3) These compounds were also used to examine the solubility increase of other poorly soluble drugs. […] Their chemical structures are shown below: [drawing 48]

[5] = log (CO/CW), octanol and water; cited from earlier work
[6] = at 37° C.; cited from earlier work
[7] = Progesterone aqueous solubility in hydrotropic solutions; format: physicochemical
From the text: as §3

PTX Solubility [1]: 0 µg/mL
solubility (physchem [2]): 25 mM (≈ 4.13 mg/mL)
SMILES: NC(=O)c1ccncc1C(N)=O [3,4-pyridinedicarboxamide]

Griseofulvin aqueous solubility (physchem [4]): 7 µg/mL
solubility (physchem [4]; 37 °C, water): 7 µg/mL (≈ 19.8 µM)
SMILES: COC1=CC(=O)C[C@@H](C)[C@]12Oc1c(Cl)c(OC)cc(OC)c1C2=O [Griseofulvin]
Partition Coefficient [5]: 2.07
Water Solubility (μM) [6]: 19.8 µM

Progesterone solubility in hydrotropic solutions ([7]; 0.0 M, 37° C., mean ±SD, n=3): 0.0012 ± 0.0000
solubility ([7]; 37 °C, 0 M, control in pure water, read-out: Progesterone aqueous solubility): 1.2 µg/mL (≈ 3.82 µM)
solubility ([7]; water without hydrotropic agent, water, 0.0 M, 37° C., mean ±SD, n=3, read-out: Progesterone solubility in hydrotropic solutions): 1.2 µg/mL (≈ 3.82 µM)
SMILES: CC(=O)[C@H]1CC[C@H]2[C@@H]3CCC4=CC(=O)CC[C@]4(C)[C@H]3CC[C@]12C [Progesterone]
Partition Coefficient [5]: 3.84
Water Solubility (μM) [6]: 3.8 µM

solubility [3]: 2500 mM
SMILES: Cc1ccc(S(=O)(=O)[O-])c(C)c1.[Na+] [Sodium xylenesulfonate]

The remaining lines, values behind:

SMILES: CCN(CC)C(=O)c1cccnc1O [2-hydroxy-N,N-diethylnicotinamide]
PTX Solubility [1]: 0 µg/mL
solubility (physchem [2]): 200 mM (≈ 38.8 mg/mL)

SMILES: CCN(CC)C(=O)c1ccc(=O)[nH]c1 [6-Hydroxy-N,N-diethylnicotinamide]
solubility [3]: 2000 mM (≈ 388 mg/mL)

SMILES: COc1cccc2c1C(=O)c1c(O)c3c(c(O)c1C2=O)C[C@@](O)(C(=O)CO)C[C@@H]3O[C@H]1C[C@H](N)[C@H](O)[C@H](C)O1 [Adriamycin]
GI50 (A-498): 0.005 µg/mL (≈ 0.0092 µM)
GI50 (A-549): 0.005 µg/mL (≈ 0.0092 µM)
GI50 (HT-29): 0.03 µg/mL (≈ 0.0552 µM)
GI50 (MCF-7): 0.2 µg/mL (≈ 0.368 µM)
GI50 (PC-3): 0.02 µg/mL (≈ 0.0368 µM)
GI50 (PaCa-2): 0.005 µg/mL (≈ 0.0092 µM)

SMILES: Cc1ccc(S(=O)(=O)[O-])cc1.[Na+] [Sodium p-toluenesulfonate]
solubility [3]: 2500 mM

SMILES: O=C1NS(=O)(=O)c2ccccc21 [o-benzoic acid sulfimide]
maximum solubility (water solubility) of the hydrotropic agent ([3]; in water): 10 mM
